Measurements from patent US20220340983A1, “SYSTEMS AND ASSAYS FOR IDENTIFYING PU.1 INHIBITORS” (Massachustts Institute of Technology, priority 2019, published 2022).

Key:
Type in all cases: cell-based, human
iPSC-microglia [1] = assay: Uptake of pHrodo-GFP-labelled mouse myelin particles in iPSC-microglia; conditions: concentration response curve, after 48 h
Description: FIGS. 12A-12B show the effects of A11 on cell viability and myelin uptake after 48 h.
A concentration response curve was performed for cell viability and myelin uptake (FIG. 12A) in iPSC-microglia. Myelin uptake was measured by uptake of pHrodo-GFP-labelled wild-type mouse myelin particles (FIG. 12B). […] The IC50s obtained for these assays was in the low nM range, matching the data obtained in BV2 cells.

iPS and ES-microglia = assay: ATP levels (CellTiter-Glo luminescence per well) in microglia
Description: Top row: Effect of a 2-day treatment with DPBS (10 μL/mL), IFNγ (25 ng/mL), TNFα (25 ng/mL), TGFβ (25 ng/mL), IL1β (25 ng/mL), LPS (25 ng/mL), ATP (100 nM), CD200 (100 ng/mL), IFNα (25 ng/mL), IL12 (5 ng/mL), CX3CL1 (100 ng/mL), CCL5 (100 ng/mL), PMA (10 ng/mL), IFNβ (10 ng/mL), IL33 (10 ng/mL), and IL4 (100 ng/mL). n=52 for DPBS, n=9 for all other inflammatory molecules, except IL33 where n=3. Bottom row: effect after co-application with A11 (20 nM). Scale bar 10 μm. […] Student's unpaired, two sided t-test, ****P≤0.0001, ***P≤0.001, **P≤0.01, *P≤0.05. […] Top row: An increase in number of cells per well with ≥2 BODIPY-positive structures was observed after a 2-day treatment with IFNγ (25 ng/mL), TNFα (25 ng/mL) and IL33 (10 ng/mL) as compared to DPBS treatment. […] Student's unpaired, two-sided t-test, ***P≤0.001, **P≤0.01, *P≤0.05. […] A 2-day treatment with IFNγ (25 ng/mL) caused increase in ATP levels that was reversed by A11 (20 nM) treatment in iPS (left panel) and ES-microglia (right panel). Student's unpaired, twosided t-test, **P≤0.01. […]
FIGS. 17A-17H show results from comparing the effects of multiple inflammatory molecules in iPS-microglia. […] Quantification based on total Vybrant DiI-positive surface area divided by number of Hoechst positive cells per field of view. […]

iPSC-microglia [2] = assay: Morphology of IFN-gamma activated iPSC-microglia; conditions: IFN-gamma 25 ng/mL 3 days, co-treated with A11 2.5 μM 2 days
Description: (§1) FIGS. 10A-10D show anti-inflammatory properties of A11 after IFNγ treatment on human induced pluripotent stem cell derived microglia. Cell viability is shown in FIG. 10A as measured with CellTiter Glo (Promega) in untreated (vehicle), A11 (2.5 μM) treated, IFNγ (25 ng/mL) treated and A11 +IFNγ treated cells. The morphology (round represent un-activated and elongated, filamentous represent activated by IFNγ) of these same conditions is shown in FIGS. 10B and quantified in FIG. 10C.
(§2) Human induced pluripotent stem cell derived microglia (iPSC-microglia) were activated with IFN-gamma (25 ng/mL, 3 days) and co-treated with A11 (2.5 μM, 2 days).

iPSC-microglia [3] = assay: mRNA expression (RTqPCR) in IFN-gamma activated iPSC-microglia; conditions: IFN-gamma 25 ng/mL 3 days, co-treated with A11 2.5 μM 2 days
Description: as §1, §2

Structure (SMILES): O=S(=O)(NCc1ccncc1)c1ccc(C2CCCCC2)cc1 [Compound A11]
- IC50 of myelin uptake (iPSC-microglia [1]): low nM range
- maximal possible reduction in myelin uptake (iPSC-microglia [1]): 50%
- ATP levels, increase caused by IFNγ (iPS and ES-microglia; 2-day IFNγ 25 ng/mL plus A11 20 nM): reversed
- amount of ATP per well (iPS and ES-microglia; A11 alone ≤20 nM): no effect
- morphology induced by IFN-gamma (iPSC-microglia [2]): reversal of the elongated and filamentous morphology induced by IFN-gamma
- CCL2 mRNA expression levels (iPSC-microglia [3]): reversal of IL1-beta and CCL2 increases to vehicle treated levels
- IL1-beta mRNA expression levels (iPSC-microglia [3]): reversal of IL1-beta and CCL2 increases to vehicle treated levels
